The text below walks through data of patent US20240034752A1, “ARTIFICIAL SHORT INTERFERING PEPTIDE FOR THE PHOSPHORYLATION SUBSTRATE OF DAPK1 AND ITS PHARMACEUTICAL APPLICATIONS” (priority 2021, published 2024).

Test [1] deals with HT22 cells. In words: Glutamate insult test in HT22 cells, MTT assay. The conditions noted are these: for reduced HT22 cell death: 400 nM peptide; for reduced HT22 cell death / reduced cell death: 6 mM glutamate, 24 h, MTT. It counts as cell-based, Mouse. The protocol: The group with 0 nM RvTAT-PKD-S205 was as a control. Cell Death rate (%)=100%×(Control OD−treatment OD)/Control OD. Data were shown as mean t SEM, (n=3), *p<0.05, **p<0.01, One-Way ANOVA followed by Multiple Comparisons versus the group with 0 nM RvTAT-PKD-S205 (Bonferroni t-test).
After 24 hours following glutamate exposure, cell cytotoxicity was determined by the MTT assay. HT22 cells, without the presence of the test agents in culture medium, were exposed separately 42 of 59 to 6 mM Glutamate salt as a control. Cell Death (%)=100%×(Control OD−treatment OD)/Control OD. Data were shown as mean±SEM, (n=3) * p<0.05, **p<0.01, One-Way ANOVA followed by Multiple Comparisons versus Glutamate Control Group (Bonferroni t-test).
The cells of HT-22 Mouse Hippocampal neuronal cell line were cultured and maintained in DMEM 10% fetal bovine serum, 100 U/ml penicillin and 100 μg/ml streptomycin. Cells were maintained at a temperature of 37° C. in 5% CO2/95% air. During agent's treatments and experimentation, HT-22 cells were seeded in 96-well plates by 6×10^3 cells/well and cultured at 37° C. in a CO2 incubator for 24 h. Afterwards, For neuroprotection assays, HT22 cells were exposure to 6 mM glutamate by removing media and adding Neurobasal Medium with present of 2% B27 (B27 (B-27™ Plus Supplement (50×)) and various concentrations of test agents for further 24 hours at 37° C. in the CO2 incubator. Cell viability was assessed by MTT assay.
Cell viability was quantitatively measured by 3-[4,5-dimethylthiazol-2-yl]-2,5-diphenyltetrazolium bromide (MTT) assay.
Water-soluble yellow dye MTT reagent (final concentration 0.5 mg/ml) was added to each well and incubated at 37° C. After 4 hours, the incubate medium was removed and 100 μl of Dimethyl Sulfoxide (DMSO) was added. After 30 min extraction at room temperature, the absorbance of the formazan solution is determined spectrophotometrically at 570 nm. MTT absorbance data were converted to reflect proportional cell viability relative to both the untreated and treated controls, wherein the untreated control was considered as 100% viability.
A general note: Formazan colour is commonly taken as a measure of viable cells.

Test [2] deals with rat primary cortical neurons. As to the kind of experiment: Oxygen-glucose deprivation (OGD)/reperfusion in primary cortical neuronal cultures, MTT assay. It counts as cell-based, Sprague Dawley rat. The protocol:
(§1) To induce OGD, EBSS containing 20 mM pH7.2 Sodium dithionite (Na2S2O4) solution with test agents were transiently exposed for 1.5 hrs, afterwards, for reperfusion, OGD culture medium was replaced with normal neurobasal media. The culture cells were further incubated for 20 hours, and cell cytotoxicity was assessed using the MTT assay. Non-OGD treated cell culture was as a control taken as 100% viability, Cell Death rate (%)=100%×(Control OD−treatment OD)/Control OD. Data were shown as mean±SEM, (n=3) * p<0.05, One-Way ANOVA followed by Multiple Comparisons versus OGD CTRL Group (Bonferroni t-test).
as §1, with “peptides” for “agents”, “show” for “shown”, “(n=3)) ** p<0.01, *** p<0.005;” for “(n=3) * p<0.05,”
Primary cultures of mixed cortical cell cultures containing both neurons and glia were prepared from embryonic day 15-18 Sprague Dawley rat as described previously [Wenxiang Fan, 50 of 59 Xiang Li, Liangliang Huang, Shucheng He, Zhicheng Xie, Yuxin Fu, Weirong Fang, Yunman Li S-oxiracetam ameliorates ischemic stroke induced neuronal apoptosis through up-regulating α7nAChR and PI3K/Akt/GSK3β signal pathway in rats Neurochemistry International Volume 115, May 2018, Pages 50-60 https://doi.org/10.1016/j.Neuint.2018.01.008]. […]
Oxygen glucose deprivation were performed according to a previously method [J. Huang, N. D. Kodithuwakku, W. He. […] Finally, Cell viability was determined by MTT assay (same as 1.2) […]

Test [3] has as its system transient middle cerebral artery occlusion/reperfusion (MCAO/R) stroke model. As to the kind of experiment: Transient MCAO/R stroke model, infarct volume by TTC staining. It counts as in vivo, Sprague-Dawley rats. The settings on record: 3.5 mg/kg single i.v. bolus 4.5 h after ischemia onset; 90 min MCAO; TTC about 24 h; vs saline controls.
The test system is the same in test [4]. As to the kind of experiment: Rotarod motor performance after MCAO/R. The conditions noted are these: 3.5 mg/kg i.v. 4.5 h after ischemia onset; for Holding time on rod increase: vs untreated control group. The class given is in vivo, Sprague-Dawley rats. A general note: The rotarod test checks motor coordination on a turning rod.
Test [5] concerns transient bilateral common carotid artery occlusion (tBCCAO/R) global cerebral ischemia model. As to the kind of experiment: Y-maze passive avoidance after tBCCAO/R. The class given is in vivo, C57BL/6 mice. The conditions noted are these: 7 mg/kg i.v. 3 h after tBCCAO; tested 24 h after tBCCAO/R; vs untreated group. The protocol: (§2) C57BL/6 mice were subjected to two times 20 minutes bilateral common carotid arteries occlusion followed by reperfusion (tBCCAO/R) and treated with 7 mg/2 ml/kg RvTAT-PKD-S205 or some volume Saline via tail vein administered after 3 hours of the tBCCAO. After 24 hours of reperfusion, the ischemic mice were estimated by the Y maze Passive Avoidance task, as well as the MDA content in hippocampus and brain water content. […] FIG. 6C show the MDA content in hippocampus collected from Ischemic or sham mice after 24 hours of reperfusion subject to MDA ELISA assay. […] Data were shown as mean±SEM, (n=11 in each group), *p<0.05, **p<0.01 compared to Saline control group using Student t test. Animal treatments were randomized, and all procedures were performed blinded to treatment. […]
The day before surgery, the researchers train the mice to avoid electric shocks caused by light sources, which can minimize the effects of odor. […] Learning and memory skill was quantified by Y maze passive avoidance task 24 hours after tBCCAO/R modeling (FIG. 6A).
After 24 hrs BCCAO/R mice were acclimatized to the testing room before conducting the Y-maze and allowed to familiarize themselves with the maze. […] A current stimulation of pre-determined intensity (0.05-0.8 mA) will be administered. […] The number to escape to the safe zone was recorded; any escapes to non-safe zones were regarded as erroneous. […]

The test system of test [6] is MDA content in hippocampus. In words: Malondialdehyde (MDA) assay after tBCCAO/R. It counts as in vivo, C57BL/6 mice. The conditions noted are these: 7 mg/kg i.v. 3 h after tBCCAO; 24 h reperfusion; vs saline. The protocol: as §2
MDA is one of the important products of lipid peroxidation and the extent of lipid oxidation was determined by measuring MDA levels. […] The supernatants were collected after the lysates were centrifuged at 3,500 r/min for 10 min at 4° C., and MDA content was determined using MDA TCA kit (Nanjing Jiancheng Bioengineering Institute, Nanjing, China) following the manufacturer's protocol. The results were evaluated from the standard curve and calculated as nM/mg of tissue.

Test [7] relates to transient bilateral common carotid artery occlusion (tBCCAO/R) global cerebral ischemia model. As to the kind of experiment: Brain edema (brain water content) after tBCCAO/R. The class given is in vivo, C57BL/6 mice. The settings on record: 7 mg/kg i.v. 3 h after tBCCAO; 24 h reperfusion; vs saline controls. The procedure:
C57BL/6 mice were subjected to two times 20 minutes bilateral common carotid arteries occlusion followed by reperfusion (tBCCAO/R) and treated with 7 mg/2 ml/kg RvTAT-PKD-S205 or some volume Saline via tail vein administered after 3 hours of the tBCCAO. After 24 hours of reperfusion, the ischemic mice were estimated by the Y maze Passive Avoidance task, as well as the MDA content in hippocampus and brain water content. […] FIG. 6C show the MDA content in hippocampus collected from Ischemic or sham mice after 24 hours of reperfusion subject to MDA ELISA assay. […] Data were shown as mean±SEM, (n=11 in each group), *p<0.05, **p<0.01 compared to Saline control group using Student t test. Animal treatments were randomized, and all procedures were performed blinded to treatment.
Modeling: C57 […] male mice weighing 20-30 g (6-7 weeks old) were allowed free access to food and water and were housed under constant environmental conditions (a 12/12 h light/dark cycle). […]
Mice were assessed for brain edema by the dry/wet weight measurement after 24 hrs BCCAO/R. Wet weight was determined immediately after dissection of the brain, then the tissue was dried at 55° C. to a constant weight over 24 hours to determine the dry weight. The percentage of brain water content was calculated as (wet weight−dry weight)/wet weight*100.

For the sequence “RRRQRRKKRGKKRPQRRYSNVP [RvTAT-opMLC-S20]”, in test [1], the “reduced HT22 cell death” value is on record as ~25%. The survival of neurons entry in test [2] (OGD model) is given as “did not significantly increase”.
With “RRRQRRKKRGNLSRRLKVTGDL [RvTAT-BECN1-T199, Fusion peptide: RvTAT at N-terminus of BECN1-T199]”, the “reduced HT22 cell death” value in test [1] is given as ~21%.
On the same count and under the same terms, the value for “RRRQRRKKRGQIAKRRRLSSLRA [RvTAT-rSP6-S235, Fusion peptide: RvTAT at N-terminus of rSP6-S235]” was “about 29%”.
For the sequence “RRRQRRKKRGRKPERRRLKTTRL [RvTAT-ZIPK-T299, Fusion peptide: RvTAT at N-terminus of ZIPK-T299]”, the “reduced HT22 cell death” value in test [1] is “about 33%”. For the same sequence, the “reducing cortical neuronal death” value in test [2] (1000 nM peptide added 30 min before OGD, 20 h reperfusion, MTT) is 12%.
“RRRQRRKKRGSGVRRRRLSNVSL [RvTAT-PKD-S205, Fusion peptide: RvTAT cell penetrating peptide at N-terminus of PKD-S205]”: the reduced cell death in test [1] (100 nM peptide) is recorded as 11%; in test [1] (200 nM peptide), 22%; in test [1] (1600 nM peptide) it was 24%. In addition, the most effective concentration in test [1] (glutamate induced apoptosis model) is 400 nM. In test [2] (300 nM peptide added 30 min before OGD, 20 h reperfusion, MTT), this sequence had a reducing neuronal death of 12%. In test [3], the “reduced the volume of total cerebral infarction” value is recorded as “approximately 60%”. Besides, the “mean holding time, treated vs untreated” value in test [4] (3 days after tMCAO) is listed as “no significant differences”. Further, the “Holding time on rod increase” value in test [4] (5 days after tMCAO) worked out at 70%; in test [4] (7 days after tMCAO) it was 75%. Also, the “increase in memory index (Y-maze passive avoidance)” value in test [5] was 30%. For the same sequence, the “decrease in MDA level” value in test [6] is listed as 55%. For the same sequence, the “brain water content reduced” value in test [7] was 8.5%.
